Where two headings read alike, the source gives them in different places.
Tests used:
[1] = test system: SLC25A19 mature transcript; assay: In-cell splicing PD assay, NCI-N87; assay type: cell-based; conditions: Homo sapiens, NCI-N87, 6 h
Description: (§1) 4.1.2 In-Cell Splicing PD Assay
(§2) Splicing of the SLC25A19 mature transcript was also examined in HCC1954 and NCI-N87 cells treated with increasing concentrations of exemplary payload compounds.
(§3) HCC1954 or NCI-N87 cells (ATCC) were plated in RPM1+10% FBS media (ATCC) at 1000 cells per well at 20 μL per well. Cells were treated with compounds in a 4-fold dilution dose-response. After 6 hours, cells were PBS washed and lysed with 30 μL of CL buffer (IgePal CA-630, 5M NaCl, 1M Tris HCl 1M pH 7.4 in water) containing 25 μL/mL of RNAsin (Promega) and incubated for 20 min at RT on a rocker. Resulting mixture (1 μL) was used to assess splicing modulation in a Taqman Fast Virus 1-Step MasterMix (Applied Biosystems) reverse transcription PCR reaction with the following Taqman primers according to the manufacturer's recommendations: SLC25A19 (Invitrogen, Hs00222265_m1); RPLPO (Invitrogen, Hs99999902_m1).

[2] = test system: SLC25A19 mature transcript; assay: In-cell splicing PD assay, HCC1954; assay type: cell-based; conditions: Homo sapiens, HCC1954, 6 h
Description: as §1, §2, §3

[3] = test system: HCC1954 breast cancer cells; assay: Payload cell viability dose response (CellTiter-Glo 2.0), HCC1954 (Example 4); assay type: cell-based, human; conditions: for GI50: Homo sapiens
Description: (§4) Cell viability dose response was determined for exemplary payload compounds in HER2-amplified HCC1954 breast cancer cells and NCI-N87 gastric cancer cells.
(§5) HCC1954 (American Type Culture Collection (ATCC)) breast ductal carcinoma or NCI-N87 (ATCC) gastric carcinoma cells were plated at 500 cells/well in flat bottom 384-well tissue culture plates (Corning) in a total volume of 30 μL tissue culture medium supplemented with 10% fetal bovine serum (ThermoFisher Scientific). Cells were treated with a 4-fold serial dilution of compound from 10000 nM to 0.01 nM. Each concentration was tested in triplicate. At the time of treatment, a plate of untreated cells was evaluated using CellTiter-Glo® 2.0 Luminescent Cell Viability Assay according to the manufacturer's recommendations (Promega; #G9241). CellTiter-Glo® 2.0 reagent was added to the medium, incubated, and assayed on an EnVision Multilabel Reader (PerkinElmer). Values represent time zero (T0). The number of viable cells following 72 (T72) or 144 hours (T144) of compound treatment was also determined using the CellTiter-Glo®2.0 Luminescent Cell Viability Assay. Using the luminescence value at time zero (T0), DMSO control growth (C), and test growth in the presence of compound (T72 or T144), the percentage growth was calculated at each of the compound concentrations levels. Percentage growth inhibition was calculated as (e.g.): [(T144−T0)/(C−T0)]×100 for concentrations for which T144>/=T0 or [(T144−T0)/T0]×100 for concentrations for which T144<T0. The dose response curve plots were generated using Prism 8 (Graphpad) and fit using nonlinear regression analysis and the log(inhibitor) versus response-variable slope (four parameters).

[4] = test system: NCI-N87 gastric cancer cells; assay: Payload cell viability dose response (CellTiter-Glo 2.0), NCI-N87 (Example 4); assay type: cell-based, human; conditions: for GI50: Homo sapiens
Description: as §4, §5

[5] = HCC1954, 72 h, read-out: CTG 72 h GI50
[6] = HCC1954, 144 h, read-out: CTG 144 h GI50
[7] = NCI-N87, 72 h, read-out: CTG 72 h GI50
[8] = NCI-N87, 144 h, read-out: CTG 144 h GI50

Structure (SMILES) | IC50 [1] [nM] | IC50 [2] [nM] | CTG 72 h LD50 ([3]; HCC1954, 72 h) [µM] | CTG 72 h Rmin ([3]; HCC1954, 72 h) [%] | CTG 144 h LD50 ([3]; HCC1954, 144 h) [nM] | CTG 144 h Rm in ([3]; HCC1954, 144 h) [%] | GI50 [3, 5] [nM] | GI50 [3, 6] [nM] | GI50 [4, 7] [nM] | GI50 [4, 8] [nM] | CTG 72 h LD50 ([4]; NCI-N87, 72 h) [µM] | CTG 72 h Rmin ([4]; NCI-N87, 72 h) [%] | CTG 144 h LD50 ([4]; NCI-N87, 144 h) [nM] | CTG 144 h Rmin ([4]; NCI-N87, 144 h) [%]
COC(=O)[C@@H](CCCCNC(=O)N1CCN(C)CC1)NC(=O)C[C@H]1CC[C@H](C)[C@@H](/C(C)=C/C=C/[C@@H](C)C[C@@]2(C)O[C@@H]2[C@H](C)[C@@H](OC)[C@@H](C)O)O1 [Compound H21] | 87.5 | 157 | > 10 | −54.164 | 127.893 | −97.761 | 81.4 | 50 | 35.5 | 40.9 | > 10 | −7.791 | 654.736 | −86.347
CO[C@H]([C@@H](C)[C@H]1O[C@]1(C)C[C@H](C)/C=C/C=C(\C)[C@H]1O[C@@H](CC(=O)N[C@@H](CCNC(=O)N2CCN(C)CC2)C(=O)O)CC[C@@H]1C)[C@@H](C)O [Compound H15] | 15.4 | 37.1 | > 10 | −44.191 | 31.77 | −95.522 | 18.1 | 11.7 | 6 | 3.5 | > 10 | −18.031 | 106.186 | −82.661
CO[C@H]([C@@H](C)[C@H]1O[C@]1(C)C[C@H](C)/C=C/C=C(\C)[C@H]1O[C@@H](CC(=O)N[C@H](CCCOC(=O)N2CCN(C)CC2)C(=O)O)CC[C@@H]1C)[C@@H](C)O [Compound H18] | 464 | 1680 | > 10 | −20.785 | 1606.048 | −88.195 | 624 | 436 | 300 | 313 | > 10 | −12.297 | 3937.618 | −60.543
COC(=O)[C@H](CCNC(=O)N1CCN(C)CC1)NC(=O)C[C@H]1CC[C@H](C)[C@@H](/C(C)=C/C=C/[C@@H](C)C[C@@]2(C)O[C@@H]2[C@H](C)[C@@H](OC)[C@@H](C)O)O1 [Compound H16] | 8.55 | 16.7 | > 10 | −65.968 | 22.316 | −98.779 | 11.8 | 8.98 | 6.76 | 3.62 | > 10 | −21.717 | 98.186 | −86.757
CO[C@H]([C@@H](C)[C@H]1O[C@]1(C)C[C@H](C)/C=C/C=C(\C)[C@H]1O[C@@H](CC(=O)NCCCC[C@@H](NC(=O)N2CCN(C)CC2)C(=O)O)CC[C@@H]1C)[C@@H](C)O [Compound H19] | > 10000 | > 10000 | > 10 | 32.813 | > 10000 | 27.17 | 8990 | 7930 | > 10000 | 3270 | > 10 | 44.396 | > 10000 | 17.442
CO[C@H]([C@@H](C)[C@H]1O[C@]1(C)C[C@H](C)/C=C/C=C(\C)[C@H]1O[C@@H](CNC(=O)[C@H]2CC[C@H](COC(=O)N3CCN(C)CC3)CC2)CC[C@@H]1C)[C@@H](C)O [Compound H22] | > 10000 | > 10000 | > 10 | 82.229 | > 10000 | 71.431 | > 10000 | > 10000 | > 10000 | 5100 | > 10 | 48.181 | > 10000 | 29.113
COC(=O)[C@@H](CCCCNC(=O)C[C@H]1CC[C@H](C)[C@@H](/C(C)=C/C=C/[C@@H](C)C[C@@]2(C)O[C@@H]2[C@H](C)[C@@H](OC)[C@@H](C)O)O1)NC(=O)N1CCN(C)CC1 [Compound H20] | 56.2 | 51.4 | > 10 | −44.802 | 98.861 | −94.301 | 40.4 | 36.4 | 29.4 | 21 | > 10 | −62.676 | 532.734 | −94.539
CO[C@H]([C@@H](C)[C@H]1O[C@]1(C)C[C@H](C)/C=C/C=C(\C)[C@H]1O[C@@H](CC(=O)N[C@@H](CCOC(=O)N2CCN(C)CC2)C(=O)O)CC[C@@H]1C)[C@@H](C)O [Compound H14] | 962 | 1350 | > 10 | −42.359 | 2055.923 | −95.522 | 626 | 682 | 415 | 730 | > 10 | −2.467 | 7944.263 | −63.41
CO[C@H]([C@@H](C)[C@H]1O[C@]1(C)C[C@H](C)/C=C/C=C(\C)[C@H]1O[C@@H](CC(=O)N[C@@H](COC(=O)N2CCN(C)CC2)C(=O)O)CC[C@@H]1C)[C@@H](C)O [Compound H13] | 108 | 320 | > 10 | −54.164 | 690.614 | −97.151 | 190 | 210 | 53.9 | 115 | > 10 | −15.164 | 2784.969 | −80.613
CO[C@H]([C@@H](C)[C@H]1O[C@]1(C)C[C@H](C)/C=C/C=C(\C)[C@H]1O[C@@H](CC(=O)N[C@@H](CCCOC(=O)N2CCN(C)CC2)C(=O)O)CC[C@@H]1C)[C@@H](C)O [Compound H17] | 114 | 135 | > 10 | −48.872 | 275.218 | −96.54 | 139 | 126 | 47 | 81.3 | > 10 | −15.164 | 912.895 | −65.458

From patent US12514928B2, “Herboxidiene antibody-drug conjugates and methods of use” (Eisai R&D Management Co., Ltd., priority 2018, dated 2026)
